The subject of data set [1] is TT cells. Kind of data set: Cytotoxicity test using CPT-11-encapsulating liposomes. In kind it is cell-based. The following applies: Homo sapiens. The protocol: TT cells were seeded into a 96-well plate at a density of 10^4 cells/well, and free CPT-11, 1.6Oct-CL or SL was added thereto at various concentrations prior to incubation for 48 hours, 72 hours and 96 hours. Next, after rinsing the cells with PBS, a coloring reagent (Cell Counting kit-8, Dojindo Laboratories) was added at 10 μL per well (100 μL), the absorbance at 450 nm was measured and IC50 (μM) was calculated.

Data set [2] concerns TT cells. Kind of data set: Effect of CPT-11-encapsulating liposomes in vivo, TT cell tumor-bearing mice (four mice per group). The protocol:
The following test was conducted to examine the in vivo effect of CPT-11-encapsulating Oct-modified liposomes. After transplanting 10^7 TT cells into mice (ICR nu/nu mice, 6-week-old, female, Oriental Yeast Co., Ltd.), tumors with tumor volumes of […] formed. To four mice in each group there were administered unmodified liposomes (CL) at 10 mg/kg body weight, as the CPT-11 amount, liposomes modified with 1.6 mol % Oct-PEG-DSPE (1.6Oct-CL), and liposomes modified with 1.6 mol % Oct-PEG-DSPE and 0.9% mol % PEG-DSPE (1.6Oct-SL). The administration was twice (1st and 4th days) through the caudal vein. As a control there was administered physiological saline and free CPT-11 (30 mg/kg), three times (1st, 4th and 7th days). The tumor size and body weight were periodically measured. […] The column headed “% ILS” in Table 3 contains the values calculated by the formula: [(mean survival days of treated group)−(mean survival days of control group)/(mean survival days of control group)]×100(%), with physiological saline as the control. The column headed “Median” in Table 3 contains the median values for survival time (days) for each group consisting of N animals.

The subject of data set [3] is TT cells. Briefly: Cytotoxicity test using non-drug-encapsulating liposomes. As to conditions: 0.042-8.4 μM Oct, 96 hours, no drug encapsulated. In kind it is cell-based, human. As for the experimental part: Next, a cytotoxicity test was conducted using non-CPT-11-encapsulating liposomes, in order to evaluate the effect of the ligand (Oct) on cytotoxicity. […] After rinsing the cells with PBS, a coloring reagent was added and the absorbance at 450 nm was measured.
In FIG. 4, the four bars for each concentration are, from the left, the cell survival rates (%) for free Oct, Empty 1.6Oct-CL, Empty 4.4Oct-CL and Empty SL, respectively.

The subject of data set [4] is TT cells. Kind of data set: Competitive inhibition test of intracellular uptake. The data set is classed as cell-based, human. As to conditions: free Oct in 20-fold molar excess (84 nmol/ml), 37° C., 2 hours. As for the experimental part:
A competitive inhibition test was conducted to examine whether or not the intracellular uptake observed in Example 2 takes place via somatostatin receptor (SSTR).
The competitive inhibition is shown schematically in FIG. 2(A).

Setting [5] is: liposomes 10 mg/kg as CPT-11 twice, free CPT-11 30 mg/kg three times.

The record followed here is patent US9289463B2, “Octreotide-modified nanomedicine for cancer treatment or cancer palliative care” (NANOSION CO., LTD., priority 2010, dated 2016).

A word on the IC50: it is the concentration that gives 50% inhibition.

On to `CCc1c2c(nc3ccc(OC(=O)N4CCC(N5CCCCC5)CC4)cc13)-c1cc3c(c(=O)n1C2)COC(=O)[C@]3(O)CC` [Free CPT-11, irinotecan], for which the IC50 in the data set with TT cells [1] (48 hrs incubation) was determined as 13.4 µM; in the data set with TT cells [1] (72 hrs incubation), 6.6 µM; with TT cells [1] (96 hrs incubation) it was 2.2 µM. Also, the “Survival time Median” value with TT cells [2] (liposomes 10 mg/kg as CPT-11, caudal vein, 1st and 4th days, free CPT-11 30 mg/kg, 1st, 4th and 7th days) is 88 (4) days. The “survival time and survival rate (life-lengthening effect)” value in the data set with TT cells [2] (setting [5]) is recorded as “no life-lengthening effect was observed”. Further, in the data set with TT cells [2] (setting [5]), the tumor size entry is “tumor size increased”. Further, in the data set on TT cells [2] (physiological saline as control, liposomes 10 mg/kg as CPT-11 twice, free CPT-11 30 mg/kg three times), the “Survival time % ILS” value is 30.4%.
With `C[C@@H](O)[C@@H]1NC(=O)[C@H](CCCCN)NC(=O)[C@@H](Cc2c[nH]c3ccccc23)NC(=O)[C@H](Cc2ccccc2)NC(=O)[C@@H](NC(=O)[C@H](N)Cc2ccccc2)CSSC[C@@H](C(=O)N[C@H](CO)[C@@H](C)O)NC1=O` [free Oct, octreotide], the “cytotoxicity (cell survival rate)” value with TT cells [3] is reported as “Cytotoxicity was observed”. The “effect of competitor on intracellular uptake of DXR-encapsulating 1.6Oct-CL” value with TT cells [4] is given as “did not affect”.
